From PMC10897476, “Pyridylpiperazine efflux pump inhibitor boosts in vivo antibiotic efficacy against K. pneumoniae” (EMBO Molecular Medicine, 2023)
Marks after values point to notes of the source that are not given here.

What was measured:
Format in all cases: cell-based, Klebsiella pneumoniae
[1] = system: K. pneumoniae ATCC 43816 (WT); assay: MIC of antibiotics with and without EPI (REMA), WT strain; details: for Minimum Inhibitory Concentration / MIC: K. pneumoniae WT; for MIC: Klebsiella pneumoniae, ATCC43816, No EPI, read-out: Minimum Inhibitory Concentration
Protocol: Overnight cultures were diluted to an OD600 = 0.001 in CAMHB followed by addition of efflux pump inhibitors (EPIs) at a final concentration of 100 µM. […] Plates were incubated at 37 °C for up to 20 h. […] MICs were defined as the concentration that prevented 90% of resazurin turnover compared to the non-treated bacteria.

[2] = system: K. pneumoniae RamR^mut (K124*stop); assay: MIC of antibiotics with and without EPI (REMA), RamR mutant; details: for Minimum Inhibitory Concentration: K. pneumoniae RamR^mut; for MIC: Klebsiella pneumoniae, read-out: Minimum Inhibitory Concentration
Protocol: (§1) MIC experiments were carried out according to the CLSI guidelines (CLSI [2023]). Overnight cultures were diluted to an OD600 = 0.001 in CAMHB followed by addition of efflux pump inhibitors (EPIs) at a final concentration of 100 µM. […] Plates were incubated at 37 °C for up to 20 h. Bacterial viability was evaluated using the resazurin microtitre assay (REMA) and measured by fluorescence using a Tecan Spaert multimode plate reader (Ex: 530 nm Em: 590 nm). MICs were defined as the concentration that prevented 90% of resazurin turnover compared to the non-treated bacteria.
(§2) Mutations in acrB or ramR identified in the BDM88855.HCl (1’) resistant mutant (a.k.a., KPJC11) were introduced individually into K. pneumoniae ATCC 43816 chromosome by allelic exchange (Cianfanelli et al, [2020]). Briefly, 1-kb PCR products centred around each point mutation were generated by amplifying acrB with primers RH1251 ([…][…]) and RH1252 ([…][…]) or ramR with primers RH1249 ([…][…]) and RH1250 ([…][…]) from KPJC11 genomic DNA. PCR fragments were cloned into pFOK (Cianfanelli et al, [2020]) using NEB-building kit ([New England Biolabs]) to generate pEP1533 and pEP1534. Correct plasmids were confirmed by sequencing and introduced into K. pneumoniae ATCC43816 WT via conjugation with the MFDpir+ E. coli donor strain. Exconjugants were selected on kanamycin (50 mg/L) plates at 37 °C and plasmid chromosomal integration was checked by PCR. […] The next day, cultures were diluted and plated onto LB agar. Isolated colonies were then patched onto LB plates with or without kanamycin (50 mg/L) and Km^S candidates were evaluated for correct allelic exchange via acrB or ramR sequencing and then WGS to confirm no additional mutations were introduced.

[3] = system: K. pneumoniae AcrB^V448E RamR^mut; assay: MIC of antibiotics with and without EPI (REMA), double mutant; details: for Minimum Inhibitory Concentration: K. pneumoniae AcrB^V448E RamR^mut; for MIC: Klebsiella pneumoniae, read-out: Minimum Inhibitory Concentration
Protocol: as §1

K. pneumoniae AcrB^V448E = assay: MIC of antibiotics with and without EPI (REMA), AcrB V448E mutant; details: for Minimum Inhibitory Concentration: K. pneumoniae AcrB^V448E; for MIC: Klebsiella pneumoniae, read-out: Minimum Inhibitory Concentration
Protocol: as §1, §2

## CC[C@H]1OC(=O)[C@H](C)[C@@H](O[C@H]2C[C@@](C)(OC)[C@@H](O)[C@H](C)O2)[C@H](C)[C@@H](O[C@@H]2O[C@H](C)C[C@H](N(C)C)[C@H]2O)[C@](C)(O)C[C@@H](C)CN(C)[C@H](C)[C@@H](O)[C@]1(C)O [Azithromycin]
[1]; + 100 µM 1'
  Minimum Inhibitory Concentration: 2.7^# mg/L
[1]; + 100 µM 5
  Minimum Inhibitory Concentration: 2.0^# mg/L
[1]; + 100 µM PAβN
  Minimum Inhibitory Concentration: 0.5^# mg/L
[1]
  MIC: 16 µg/mL
[1]; Table 2
  boosting of antibiotic activity in combination with EPIs: at least 8 fold
[2]; + 100 µM 1'
  Minimum Inhibitory Concentration: 11^# mg/L
[2]; + 100 µM 5
  Minimum Inhibitory Concentration: 3.3^# mg/L
[2]; + 100 µM PAβN
  Minimum Inhibitory Concentration: 0.7^# mg/L
[2]
  MIC: 37 µg/mL
[3]; + 100 µM 1'
  Minimum Inhibitory Concentration: 37 mg/L
[3]; + 100 µM 5
  Minimum Inhibitory Concentration: 21 mg/L
[3]; + 100 µM PAβN
  Minimum Inhibitory Concentration: 0.7^# mg/L
[3]
  MIC: 21 µg/mL
K. pneumoniae AcrB^V448E; + 100 µM 1'
  Minimum Inhibitory Concentration: 6.7^# mg/L
K. pneumoniae AcrB^V448E; + 100 µM 5
  Minimum Inhibitory Concentration: 11^# mg/L
K. pneumoniae AcrB^V448E; + 100 µM PAβN
  Minimum Inhibitory Concentration: 0.5^# mg/L
K. pneumoniae AcrB^V448E
  MIC: 21 µg/mL

## C[C@H]1[C@H](NC(=O)/C(=N\OC(C)(C)C(=O)O)c2csc(N)n2)C(=O)N1S(=O)(=O)O [Aztreonam]
[1]; + 100 µM 1'
  Minimum Inhibitory Concentration: 0.11 mg/L
[1]; + 100 µM 5
  Minimum Inhibitory Concentration: 0.11 mg/L
[1]; + 100 µM PAβN
  Minimum Inhibitory Concentration: 0.16 mg/L
[1]
  MIC: 0.07 µg/mL
[2]; + 100 µM 1'
  Minimum Inhibitory Concentration: 0.32 mg/L
[2]; + 100 µM 5
  Minimum Inhibitory Concentration: 0.27 mg/L
[2]; + 100 µM PAβN
  Minimum Inhibitory Concentration: 0.53 mg/L
[2]
  MIC: 0.43 µg/mL
[3]; + 100 µM 1'
  Minimum Inhibitory Concentration: 0.53 mg/L
[3]; + 100 µM 5
  Minimum Inhibitory Concentration: 0.75 mg/L
[3]; + 100 µM PAβN
  Minimum Inhibitory Concentration: 0.53 mg/L
[3]
  MIC: 0.53 µg/mL
K. pneumoniae AcrB^V448E; + 100 µM 1'
  Minimum Inhibitory Concentration: 0.16 mg/L
K. pneumoniae AcrB^V448E; + 100 µM 5
  Minimum Inhibitory Concentration: 0.21 mg/L
K. pneumoniae AcrB^V448E; + 100 µM PAβN
  Minimum Inhibitory Concentration: 0.32 mg/L
K. pneumoniae AcrB^V448E
  MIC: 0.13 µg/mL

## CO/N=C(\C(=O)N[C@@H]1C(=O)N2C(C(=O)[O-])=C(C[N+]3(C)CCCC3)CS[C@H]12)c1csc(N)n1 [Cefepime]
[1]; + 100 µM 1'
  Minimum Inhibitory Concentration: 0.05 mg/L
[1]; + 100 µM 5
  Minimum Inhibitory Concentration: 0.05 mg/L
[1]; + 100 µM PAβN
  Minimum Inhibitory Concentration: 0.21 mg/L
[1]
  MIC: 0.09 µg/mL
[2]; + 100 µM 1'
  Minimum Inhibitory Concentration: 0.64 mg/L
[2]; + 100 µM 5
  Minimum Inhibitory Concentration: 0.11^# mg/L
[2]; + 100 µM PAβN
  Minimum Inhibitory Concentration: 0.64 mg/L
[2]
  MIC: 0.53 µg/mL
[3]; + 100 µM 1'
  Minimum Inhibitory Concentration: 0.85 mg/L
[3]; + 100 µM 5
  Minimum Inhibitory Concentration: 0.96 mg/L
[3]; + 100 µM PAβN
  Minimum Inhibitory Concentration: 0.85 mg/L
[3]
  MIC: 0.75 µg/mL
K. pneumoniae AcrB^V448E; + 100 µM 1'
  Minimum Inhibitory Concentration: 0.05 mg/L
K. pneumoniae AcrB^V448E; + 100 µM 5
  Minimum Inhibitory Concentration: 0.04 mg/L
K. pneumoniae AcrB^V448E; + 100 µM PAβN
  Minimum Inhibitory Concentration: 0.64 mg/L
K. pneumoniae AcrB^V448E
  MIC: 0.06 µg/mL

## CC(C)(O/N=C(\C(=O)N[C@@H]1C(=O)N2C(C(=O)[O-])=C(C[n+]3ccccc3)CS[C@H]12)c1csc(N)n1)C(=O)O [Ceftazidime]
[1]; + 100 µM 1'
  Minimum Inhibitory Concentration: 0.32 mg/L
[1]; + 100 µM 5
  Minimum Inhibitory Concentration: 0.53 mg/L
[1]; + 100 µM PAβN
  Minimum Inhibitory Concentration: 0.32 mg/L
[1]
  MIC: 0.43 µg/mL
[2]; + 100 µM 1'
  Minimum Inhibitory Concentration: 1.1 mg/L
[2]; + 100 µM 5
  Minimum Inhibitory Concentration: 0.64^# mg/L
[2]; + 100 µM PAβN
  Minimum Inhibitory Concentration: 0.64^# mg/L
[2]
  MIC: 1.3 µg/mL
[3]; + 100 µM 1'
  Minimum Inhibitory Concentration: 1.28 mg/L
[3]; + 100 µM 5
  Minimum Inhibitory Concentration: 1.28 mg/L
[3]; + 100 µM PAβN
  Minimum Inhibitory Concentration: 1.28 mg/L
[3]; No EPI
  Minimum Inhibitory Concentration: 1.28 mg/L
K. pneumoniae AcrB^V448E; + 100 µM 1'
  Minimum Inhibitory Concentration: 0.37^# mg/L
K. pneumoniae AcrB^V448E; + 100 µM 5
  Minimum Inhibitory Concentration: 0.32^# mg/L
K. pneumoniae AcrB^V448E; + 100 µM PAβN
  Minimum Inhibitory Concentration: 0.53 mg/L
K. pneumoniae AcrB^V448E
  MIC: 0.85 µg/mL

## O=C(N[C@H](CO)[C@H](O)c1ccc([N+](=O)[O-])cc1)C(Cl)Cl [Chloramphenicol]
[1]; + 100 µM 1'
  Minimum Inhibitory Concentration: 1.0^# mg/L
[1]; + 100 µM 5
  Minimum Inhibitory Concentration: 1.0^# mg/L
[1]; + 100 µM PAβN
  Minimum Inhibitory Concentration: 1.7^# mg/L
[1]
  MIC: 4 µg/mL
[2]; + 100 µM 1'
  Minimum Inhibitory Concentration: 2.7^# mg/L
[2]; + 100 µM 5
  Minimum Inhibitory Concentration: 4.7^# mg/L
[2]; + 100 µM PAβN
  Minimum Inhibitory Concentration: 2.7^# mg/L
[2]
  MIC: 53 µg/mL
[3]; + 100 µM 1'
  Minimum Inhibitory Concentration: 128 mg/L
[3]; + 100 µM 5
  Minimum Inhibitory Concentration: 128 mg/L
[3]; + 100 µM PAβN
  Minimum Inhibitory Concentration: 5.3^# mg/L
[3]; No EPI
  Minimum Inhibitory Concentration: 128 mg/L
K. pneumoniae AcrB^V448E; + 100 µM 1'
  Minimum Inhibitory Concentration: 2.0^# mg/L
K. pneumoniae AcrB^V448E; + 100 µM 5
  Minimum Inhibitory Concentration: 4.7 mg/L
K. pneumoniae AcrB^V448E; + 100 µM PAβN
  Minimum Inhibitory Concentration: 2.0^# mg/L
K. pneumoniae AcrB^V448E
  MIC: 6.7 µg/mL
